Tested on: CXCL10 secretion induced by poly(I:C) in HaCaT cells
Test: poly(I:C)-induced CXCL10 secretion assay in HaCaT cells (ELISA)
Format: cell-based, Human
Conditions: poly(I:C) 20 μg/ml, 48 hours
Procedure: In another CXCL10 assay, immortalized keratinocytes (HaCaTs) cells (AddexBio #T0020001) were cultured in DMEM (Thermo Fisher #10566-016) supplemented with 10% FBS and 1% penicillin/streptomycin. 1×10^5 HaCaT cells were seeded per well of a 24-well culture dish in 400 μl culture medium. Once confluent, medium was aspirated and cells were pretreated with 200 μl of DMSO vehicle (0.1%) or 3-fold serial dilutions ([…]) of 7-(2-(methyloxy)-6-{[(4-methyl-2-pyridinyl)methyl]oxy}-phenyl)-2,3,4,5-tetrahydro-1H-3-benzazepine (Compound 1) for 30 minutes at 37° C. with 5% CO2. After pre-treatment, 200 μl of poly(I:C) at 40 μg/ml was added per well (without removal of pre-treatment medium), making the final treatment concentration 20 μg/ml. Additional compound and/or DMSO was included to maintain concentrations. All samples received 0.1% DMSO during both pre-treatment and treatment phases. Cells were returned to the incubator for 48 hours. Each condition had biological triplicates.
At 48 hours, supernatants were collected, centrifuged to pellet debris, and then re-collected. CXCL10 secreted into the supernatant was measured by the Human CXCL10/IP-10 Quantikine ELISA Kit (R&D Systems #DIP 100) according to the manufacturer's protocol. […]

Question: How did the “CXCL10 secretion induced by poly(I:C), percentage of maximum stimulation (vehicle = 100%)” value (30 min pre-treatment, supernatant ELISA, FIG. 1) turn out when `COc1cccc(OCc2cc(C)ccn2)c1-c1ccc2c(c1)CCNCC2` [Compound 1, 7-(2-(methyloxy)-6-{[(4-methyl-2-pyridinyl)methyl]oxy}-phenyl)-2,3,4,5-tetrahydro-1H-3-benzazepine] was run?
Answer: dose-dependent decrease

Question: What about the “dose concentration at which maximal inhibition of CXCL10 secretion was observed” value (highest concentration tested) of the same compound?
Answer: 10 µM

— patent publication US20180207172A1, “TREATMENT FOR VITILIGO” (GLAXO GROUP LIMITED, priority 2015, published 2018)
